According to patent publication US10874643B2 (priority 2015, dated 2020):
Structures can show the parent of a compound that is named as a salt. Where two headings read alike, the source gives them in different places.

What was measured:
[1] = test system: scn1Lab mutants; test: Locomotion tracking assay of seizure behavior (96-well format); settings: for effect on locomotor seizure behavior: 1 mM; for effect on locomotor seizure behavior / inhibition of spontaneous seizure behavior, initial library screen / convulsive/seizure behavior with antihistamines: 5 dpf; for effect on locomotor seizure behavior / inhibition of spontaneous seizure behavior, initial library screen: 6-12 fish; for 5HT library first-pass locomotion screen: 250 μM, 6 fish per drug, positive hit = reduction in mean swim velocity ≥38%; for swim activity / seizure behavior, third evaluation: 100 μM, 10 fish per trial; for seizure-induced swim activity and mean velocity, re-test on separate clutch: 667, 67 and 6.7 μM; for inhibition of spontaneous seizure behavior, initial library screen: 667 μM; for convulsive/seizure behavior with antihistamines: shelf screen at 0.1-1 mM
[2] = test system: scn1Lab mutants; assay type: in vivo, zebrafish; settings: for forebrain electrographic seizure activity in the same mutants after the locomotion assay: 100 μM, mutant embedded in agar; for fish in which epileptiform activity became more frequent following exposure: 1 mM
[3] = test system: wild-type larvae; test: DMSO toxicity in wild-type larvae; settings: dilutions between 0.01 and 100%; n=12 fish per concentration
[4] = 1 mM bath applied, agar-embedded mutants 5-6 dpf, seven fish per drug, vs baseline
[5] = 1 mM bath applied, 5-6 dpf, seven fish per drug, vs baseline

Compound: CC(=O)Nc1nnc(S(N)(=O)=O)s1 [Acetazolamide]
- effect on locomotor seizure behavior [1]: increased seizure behavior

Compound: COc1ccccc1N1CCN(CCN2C(=O)CC3(CCCC3)CC2=O)CC1 [BMY 7378, 8-(2-[4-(2-methoxyphenyl)-1-piperazinyl]ethyl)-8-azaspiro[4.5]decane-7,9-dione]
- 5HT library first-pass locomotion screen [1]: positive hits

Compound: CN1CCC(c2c[nH]c3ccc(O)cc23)CC1 [BRL-54443, 3-(1-methylpiperidin-4-yl)-1H-indol-5-ol]
- 5HT library first-pass locomotion screen [1]: positive hits

Compound: C#CCN(C)CCCOc1ccc(Cl)cc1Cl [Clorgiline]
- forebrain electrographic seizure activity in the same mutants after the locomotion assay [2]: electrographic seizure events were still observed
- swim activity / seizure behavior, third evaluation [1]: reduced swim activity
- seizure-induced swim activity and mean velocity, re-test on separate clutch [1]: effective in reducing seizure-induced swim activity and mean velocity

Compound: C[S+](C)[O-] [DMSO]
- lethal DMSO concentration [3]: > 25%

Compound: C[C@]12N[C@H](Cc3ccccc31)c1ccccc12 [MK-801]
- epileptic seizure events in sample EEG traces ([2]; zebrafish, in vivo): no suppression of epileptic events

Compound: NCC(O)CC(=O)O (centres unmarked) [aminohydroxybutyric acid]
- inhibition of spontaneous seizure behavior, initial library screen [1]: ineffective

Compound: CNCC[C@@H](Oc1ccccc1C)c1ccccc1 [atomoxetine]
- 5HT library first-pass locomotion screen [1]: positive hits

Compound: O=C(CCCl)NCc1ccccc1 [beclamide]
- inhibition of spontaneous seizure behavior, initial library screen [1]: ineffective

Compound: O=C1CC2(CCCC2)CC(=O)N1CCCCN1CCN(c2ncccn2)CC1 [buspirone]
- 5HT library first-pass locomotion screen [1]: positive hits

Compound: NC(=O)N1c2ccccc2C=Cc2ccccc21 [carbamazepine]
- Epileptiform event frequency (burst frequency; interictal- and ictal-like discharges) [2, 4]: increased burst frequency
- fish in which epileptiform activity became more frequent following exposure ([2]; seven fish per drug): 2 of 7

Compound: CN1C(=O)CN=C(c2ccccc2)c2cc(Cl)ccc21 [diazepam]
- Epileptiform event frequency (burst frequency; interictal- and ictal-like discharges) ([2]; zebrafish, in vivo): reduced
- fractional time spent seizing ([2]; zebrafish, in vivo): reduced
- effect on locomotor seizure behavior [1]: effectively inhibited seizure behavior

Compound: CCC1(C)CC(=O)NC1=O (centres unmarked) [ethosuximide]
- fish in which epileptiform activity became more frequent following exposure ([2]; seven fish per drug): 4 of 7
- effect on locomotor seizure behavior [1]: increased seizure behavior

Compound: CC(=O)[C@H]1CC[C@H]2[C@@H]3CC[C@H]4C[C@](C)(O)CC[C@]4(C)[C@H]3CC[C@]12C [ganaxolone]
- effect on locomotor seizure behavior [1]: effective

Compound: CC(C)CCCC(C)NC(C)C (centres unmarked) [iproheptine]
- convulsive/seizure behavior with antihistamines [1]: failed to suppress convulsive behavior

Compound: Nc1nnc(-c2cccc(Cl)c2Cl)c(N)n1 [lamotrigine]
- effect on locomotor seizure behavior [1]: had no effect

Compound: CC[C@@H](C(N)=O)N1CCCC1=O [levetiracetam]
- effect on locomotor seizure behavior [1]: had no effect

Compound: C[C@H]1CNCCc2ccc(Cl)cc21 [lorcaserin]
- 5HT library first-pass locomotion screen [1]: positive hits

Compound: CN1CCc2c(c3ccccc3n2Cc2ccccc2)C1.CN1CCc2c(c3ccccc3n2Cc2ccccc2)C1.O=S(=O)(O)c1cccc2c(S(=O)(=O)O)cccc12 [mebhydrolin napthalenesulfonate]
- convulsive/seizure behavior with antihistamines [1]: failed to suppress convulsive behavior

Compound: CNS(=O)(=O)CCc1ccc2[nH]cc(C3CCN(C)CC3)c2c1 [naratriptap]
- 5HT library first-pass locomotion screen [1]: positive hits

Compound: CN1CCC(=C2c3ccccc3Sc3ccccc32)CC1 [pimethixene maleate]
- convulsive/seizure behavior with antihistamines [1]: failed to suppress convulsive behavior

Compound: [Br-].[K+] [potassium bromide]
- fractional time spent seizing [2, 5]: reduced
- Epileptiform event frequency (burst frequency; interictal- and ictal-like discharges) [2, 4]: reduced
- effect on locomotor seizure behavior [1]: effectively inhibited seizure behavior

Compound: CN(C)CCc1c[nH]c2ccc(Cn3cncn3)cc12 [rizatriptan]
- 5HT library first-pass locomotion screen [1]: positive hits

Compound: CC(C)(C)C(O)/C=C/c1ccc2c(c1)OCO2 (centres unmarked) [stiripentol]
- fractional time spent seizing [2, 5]: reduced
- Epileptiform event frequency (burst frequency; interictal- and ictal-like discharges) [2, 4]: reduced
- effect on locomotor seizure behavior [1]: effectively inhibited seizure behavior

Compound: CNS(=O)(=O)Cc1ccc2[nH]cc(CCN(C)C)c2c1 [sumatriptan]
- 5HT library first-pass locomotion screen [1]: positive hits

Compound: CCNC1(c2cccs2)CCCCC1=O (centres unmarked) [tiletamine]
- inhibition of spontaneous seizure behavior, initial library screen [1]: ineffective

Compound: Cc1ccc(C(=O)C(C)CN2CCCCC2)cc1 (centres unmarked) [tolperisone]
- forebrain electrographic seizure activity in the same mutants after the locomotion assay [2]: electrographic seizure events were still observed
- swim activity / seizure behavior, third evaluation [1]: reduced swim activity
- seizure-induced swim activity and mean velocity, re-test on separate clutch [1]: effective in reducing seizure-induced swim activity and mean velocity

Compound: O=c1n(CCCN2CCN(c3cccc(Cl)c3)CC2)nc2ccccn12 [trazodone]
- epileptic seizure events in sample EEG traces ([2]; FIG. 12B): suppression of epileptic seizure events
- EEG activity ([2]; concentrations between 250 and 500 μM, n=15): effectively suppressed EEG activity
- 5HT library first-pass locomotion screen [1]: positive hits
- toxicity in the locomotion assay ([1]; 750 μM): toxic
- inhibition of spontaneous seizure behavior, concentration-response re-test ([1]; concentrations between 100 and 750 μM, 30 or 90 min exposure, threshold ≥40%): robust inhibition of spontaneous seizure behavior

Compound: COc1ccccc1N1CCN(CCCNc2cc(=O)n(C)c(=O)n2C)CC1 [urapidil]
- 5HT library first-pass locomotion screen [1]: positive hits

Compound: COc1ccc(C(CN(C)C)C2(O)CCCCC2)cc1 (centres unmarked) [venlafaxine]
- 5HT library first-pass locomotion screen [1]: positive hits

Compound: C=CC(N)CCC(=O)O (centres unmarked) [vigabatrin]
- Epileptiform event frequency (burst frequency; interictal- and ictal-like discharges) [2, 4]: increased burst frequency
- fish in which epileptiform activity became more frequent following exposure ([2]; seven fish per drug): 6 of 7

Compound: O=C1Cc2cc(CCN3CCN(c4nsc5ccccc45)CC3)c(Cl)cc2N1 [ziprasidone]
- 5HT library first-pass locomotion screen [1]: positive hits

Compound: CN(C)CCc1c[nH]c2ccc(C[C@H]3COC(=O)N3)cc12 [zolmitriptan]
- 5HT library first-pass locomotion screen [1]: positive hits
